Measured values as given in patent US20120157379A1, “Gastric Inhibitory Peptide Variants and Their Uses” (priority 2009, published 2012).
Numbering of substitutions follows the chain as printed.

T1: GIP receptor (GIPR) (Homo sapiens, UniProt P48546)
T1 construct: host or cells: HEK293T
T1 sequence (P48546 22-466): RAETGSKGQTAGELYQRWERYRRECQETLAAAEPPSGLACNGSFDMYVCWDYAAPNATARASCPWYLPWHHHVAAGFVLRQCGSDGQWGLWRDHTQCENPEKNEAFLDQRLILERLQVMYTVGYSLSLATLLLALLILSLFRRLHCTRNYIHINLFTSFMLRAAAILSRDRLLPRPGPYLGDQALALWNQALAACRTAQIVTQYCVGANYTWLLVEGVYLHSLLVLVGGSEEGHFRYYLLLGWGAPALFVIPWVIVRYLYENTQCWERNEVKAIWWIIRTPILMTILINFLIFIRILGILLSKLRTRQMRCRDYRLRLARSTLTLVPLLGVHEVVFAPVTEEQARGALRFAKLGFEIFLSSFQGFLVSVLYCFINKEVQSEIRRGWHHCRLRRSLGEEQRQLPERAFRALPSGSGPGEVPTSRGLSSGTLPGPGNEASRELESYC

T2: recombinant wild type GIP receptor (GIPR) expressed in HEK293T cells (Homo sapiens (Human), UniProt P48546)
T2 sequence: T1 sequence (P48546 22-466)

B1: GIP55G, extended 55-amino-acid GIP isoform encoded by the derived G-44394131 allele (G103) (ligand)
peptide: YAEGTFISDYSIAMDKIHQQDFVNWLLAQKGKKNDWKHNITQREARALELAGQAN
B2: GIP55S, extended 55-amino-acid GIP isoform encoded by the ancestral A-44394131 allele (S103) (ligand)
peptide: B1 peptide with G52S

Key:
[1] = molecular target: T1, GIP receptor (GIPR); assay: Receptor-activation assay: cAMP production in HEK293T cells expressing recombinant GIP receptor; assay type: cell-based; details: for EC50: EC50 values (-Log EC50, mean ± SEM)
Experimental: (§1) Vector, transfection, and receptor-activation assay. […] The treated peptides were frozen at −80 C before testing with transfected cells. Receptor-activation activities were assayed based on cAMP production in transfected cells, and were performed as described44. The receptor-activation results were analyzed using the GraphPad Prism 5 package.

[2] = Resistance to serum degradation: peptides incubated with human serum at 37 C, then tested for receptor activation; details: pooled normal human serum or pooled complement-preserved human serum, in vitro
Experimental: as §1

[3] = tested on: fasting Sprague-Dawley rats; assay: In vivo glucose suppression assay; set-up: species or system rat; details: for blood glucose after exogenous glucose: 100 nmoles/kg peptide with glucose 3.8 g/kg intraperitoneal, 1 hr after injection
Experimental: The in vivo glucose suppression assay. Eight-week-old Sprague-Dawley rats were fasted overnight for 20 hours. […] Bloods were obtained via the tail vein at select time points after intraperitoneal injection of glucose with a peptide. Glucose levels in the blood were measured by an OneTouch Ultra Blood Glucose Monitoring System and OneTouch Ultra Test Strips (Johnson and Johnson).

[4] = molecular target: T2, recombinant wild type GIP receptor …; assay: cell-based or functional assay
[5] = molecular target: T2, recombinant wild type GIP receptor …; assay: cell-based or functional assay; remark: listed apart in the source

Molecule | resistance to degradation by human serum, relative to GIP [2] | blood glucose after exogenous glucose [3] | EC50 of cAMP production in GIPR-expressing HEK293T cells [4] [nM] | -Log EC50 of cAMP production; peptide incubated 0 hr with pooled complement preserved human serum [5] | -Log EC50 of cAMP production; peptide incubated 0 hr with pooled human serum [5] | -Log EC50 of cAMP production; peptide incubated 3 hr with pooled complement preserved human serum [5] | -Log EC50 of cAMP production; peptide incubated 3 hr with pooled human serum [5] | -Log EC50 of cAMP production; peptide incubated 6 hr with pooled complement preserved human serum [5] | -Log EC50 of cAMP production; peptide incubated 6 hr with pooled human serum [5] | -Log EC50 of cAMP production; peptide incubated 12 hr with pooled complement preserved human serum [5] | -Log EC50 of cAMP production; peptide incubated 12 hr with pooled human serum [5] | further results
CC[C@H](C)[C@H](NC(=O)[C@H](CO)NC(=O)[C@H](Cc1ccc(O)cc1)NC(=O)[C@H](CC(=O)O)NC(=O)[C@H](CO)NC(=O)[C@@H](NC(=O)[C@H](Cc1ccccc1)NC(=O)[C@@H](NC(=O)CNC(=O)[C@H](CCC(=O)O)NC(=O)[C@H](C)NC(=O)[C@@H](N)Cc1ccc(O)cc1)[C@@H](C)O)[C@@H](C)CC)C(=O)N[C@@H](C)C(=O)N[C@@H](CCSC)C(=O)N[C@@H](CC(=O)O)C(=O)N[C@@H](CCCCN)C(=O)N[C@H](C(=O)N[C@@H](Cc1c[nH]cn1)C(=O)N[C@@H](CCC(N)=O)C(=O)N[C@@H](CCC(N)=O)C(=O)N[C@@H](CC(=O)O)C(=O)N[C@@H](Cc1ccccc1)C(=O)N[C@H](C(=O)N[C@@H](CC(N)=O)C(=O)N[C@@H](Cc1c[nH]c2ccccc12)C(=O)N[C@@H](CC(C)C)C(=O)N[C@@H](CC(C)C)C(=O)N[C@@H](C)C(=O)N[C@@H](CCC(N)=O)C(=O)N[C@@H](CCCCN)C(=O)NCC(=O)N[C@@H](CCCCN)C(=O)N[C@@H](CCCCN)C(=O)N[C@@H](CC(N)=O)C(=O)N[C@@H](CC(=O)O)C(=O)N[C@@H](Cc1c[nH]c2ccccc12)C(=O)N[C@@H](CCCCN)C(=O)N[C@@H](Cc1c[nH]cn1)C(=O)N[C@@H](CC(N)=O)C(=O)N[C@H](C(=O)N[C@H](C(=O)N[C@@H](CCC(N)=O)C(=O)N[C@@H](CCCNC(=N)N)C(=O)N[C@@H](CCC(=O)O)C(=O)N[C@@H](C)C(=O)N[C@@H](CCCNC(=N)N)C(=O)N[C@@H](C)C(=O)N[C@@H](CC(C)C)C(=O)N[C@@H](CCC(=O)O)C(=O)N[C@@H](CC(C)C)C(=O)N[C@@H](C)C(=O)N[C@@H](CO)C(=O)N[C@@H](CCC(N)=O)C(=O)N[C@@H](C)C(=O)N[C@@H](CC(N)=O)C(=O)O)[C@@H](C)O)[C@@H](C)CC)C(C)C)[C@@H](C)CC [GIP55S] | significantly more resistant to degradation | reduced glucose contents in the blood to basal levels |  |  |  |  |  |  |  |  |  | ranking of potency ([1]; 0 hr of human serum treatment (normal or complement preserved)): GIP>GIP55G>GIP55S; ranking of potency ([1]; 6 hr after treatment with human serum (normal or complement preserved)): GIP=GIP55G=GIP55S; ranking of potency ([1]; 12 hr after treatment with human serum (normal or complement preserved)): GIP55G>GIP55S≧GIP; lower potency relative to conventional GIP ([1]; EC50 compared with GIP, no serum treatment): ~3 fold; EC50 ([1]; with pooled complement preserved human serum, 0 hours of incubation): 3.72 nM; EC50 ([1]; with pooled complement preserved human serum, 3 hours of incubation): 3.24 nM; EC50 ([1]; with pooled complement preserved human serum, 6 hours of incubation): 16.2 nM; EC50 ([1]; with pooled complement preserved human serum, 12 hours of incubation): 75.9 nM; EC50 ([1]; with pooled human serum, 0 hours of incubation): 2.75 nM; EC50 ([1]; with pooled human serum, 3 hours of incubation): 4.57 nM; EC50 ([1]; with pooled human serum, 6 hours of incubation): 18.2 nM; EC50 ([1]; with pooled human serum, 12 hours of incubation): 41.7 nM; cAMP production in GIP receptor-expressing HEK293T cells ([1]; cells treated with synthetic peptides for 12 hr, total cAMP in cell lysates): dose-dependent increases of cAMP production; suppression of hyperglycemia ([3]; compared with conventional mature GIP): suppress hyperglycemias to similar extents
CC[C@H](C)[C@H](NC(=O)[C@H](CO)NC(=O)[C@H](Cc1ccc(O)cc1)NC(=O)[C@H](CC(=O)O)NC(=O)[C@H](CO)NC(=O)[C@@H](NC(=O)[C@H](Cc1ccccc1)NC(=O)[C@@H](NC(=O)CNC(=O)[C@H](CCC(=O)O)NC(=O)[C@H](C)NC(=O)[C@@H](N)Cc1ccc(O)cc1)[C@@H](C)O)[C@@H](C)CC)C(=O)N[C@@H](C)C(=O)N[C@@H](CCSC)C(=O)N[C@@H](CC(=O)O)C(=O)N[C@@H](CCCCN)C(=O)N[C@H](C(=O)N[C@@H](Cc1c[nH]cn1)C(=O)N[C@@H](CCC(N)=O)C(=O)N[C@@H](CCC(N)=O)C(=O)N[C@@H](CC(=O)O)C(=O)N[C@@H](Cc1ccccc1)C(=O)N[C@H](C(=O)N[C@@H](CC(N)=O)C(=O)N[C@@H](Cc1c[nH]c2ccccc12)C(=O)N[C@@H](CC(C)C)C(=O)N[C@@H](CC(C)C)C(=O)N[C@@H](C)C(=O)N[C@@H](CCC(N)=O)C(=O)N[C@@H](CCCCN)C(=O)NCC(=O)N[C@@H](CCCCN)C(=O)N[C@@H](CCCCN)C(=O)N[C@@H](CC(N)=O)C(=O)N[C@@H](CC(=O)O)C(=O)N[C@@H](Cc1c[nH]c2ccccc12)C(=O)N[C@@H](CCCCN)C(=O)N[C@@H](Cc1c[nH]cn1)C(=O)N[C@@H](CC(N)=O)C(=O)N[C@H](C(=O)N[C@H](C(=O)N[C@@H](CCC(N)=O)C(=O)O)[C@@H](C)O)[C@@H](C)CC)C(C)C)[C@@H](C)CC [GIP, Gastric inhibitory polypeptide, reference compound] |  | reduced glucose contents in the blood to basal levels |  |  |  |  |  |  |  |  |  | 
CC[C@H](C)[C@H](NC(=O)[C@H](CO)NC(=O)[C@H](Cc1ccc(O)cc1)NC(=O)[C@H](CC(=O)O)NC(=O)[C@H](CO)NC(=O)[C@@H](NC(=O)[C@H](Cc1ccccc1)NC(=O)[C@@H](NC(=O)CNC(=O)[C@H](CCC(=O)O)NC(=O)[C@H](C)NC(=O)[C@@H](N)Cc1ccc(O)cc1)[C@@H](C)O)[C@@H](C)CC)C(=O)N[C@@H](C)C(=O)N[C@@H](CCSC)C(=O)N[C@@H](CC(=O)O)C(=O)N[C@@H](CCCCN)C(=O)N[C@H](C(=O)N[C@@H](Cc1c[nH]cn1)C(=O)N[C@@H](CCC(N)=O)C(=O)N[C@@H](CCC(N)=O)C(=O)N[C@@H](CC(=O)O)C(=O)N[C@@H](Cc1ccccc1)C(=O)N[C@H](C(=O)N[C@@H](CC(N)=O)C(=O)N[C@@H](Cc1c[nH]c2ccccc12)C(=O)N[C@@H](CC(C)C)C(=O)N[C@@H](CC(C)C)C(=O)N[C@@H](C)C(=O)N[C@@H](CCC(N)=O)C(=O)N[C@@H](CCCCN)C(=O)NCC(=O)N[C@@H](CCCCN)C(=O)N[C@@H](CCCCN)C(=O)N[C@@H](CC(N)=O)C(=O)N[C@@H](CC(=O)O)C(=O)N[C@@H](Cc1c[nH]c2ccccc12)C(=O)N[C@@H](CCCCN)C(=O)N[C@@H](Cc1c[nH]cn1)C(=O)N[C@@H](CC(N)=O)C(=O)N[C@H](C(=O)N[C@H](C(=O)N[C@@H](CCC(N)=O)C(=O)N[C@@H](CCCNC(=N)N)C(=O)N[C@@H](CCC(=O)O)C(=O)N[C@@H](C)C(=O)N[C@@H](CCCNC(=N)N)C(=O)N[C@@H](C)C(=O)N[C@@H](CC(C)C)C(=O)N[C@@H](CCC(=O)O)C(=O)N[C@@H](CC(C)C)C(=O)N[C@@H](C)C(=O)NCC(=O)N[C@@H](CCC(N)=O)C(=O)N[C@@H](C)C(=O)N[C@@H](CC(N)=O)C(=O)O)[C@@H](C)O)[C@@H](C)CC)C(C)C)[C@@H](C)CC [GIP55G] | significantly more resistant to degradation |  |  |  |  |  |  |  |  |  |  | 
B1 |  |  | 3.2 | 8.51 -Log EC50 | 8.47 -Log EC50 | 8.22 -Log EC50 | 8.32 -Log EC50 | 7.88 -Log EC50 | 8.02 -Log EC50 | 7.86 -Log EC50 | 7.93 -Log EC50 | 
B2 |  |  | 2.6 | 8.43 -Log EC50 | 8.56 -Log EC50 | 8.49 -Log EC50 | 8.34 -Log EC50 | 7.79 -Log EC50 | 7.74 -Log EC50 | 7.12 -Log EC50 | 7.38 -Log EC50 | 
